Where a name gives a salt, the structure may show the parent alone. Read-outs that look alike come from different tables or passages of the source.
Experiments:
Type in all cases: cell-based
human S1P1 = human S1P1 (Homo sapiens (Human), UniProt P21453); assay: In vitro functional activity (agonism) on human S1P1 receptors (method A), CHO-K1-human-S1P1-Aequorin assay
Source text: In Vitro Functional Activity (Agonism) on Human S1P1 Receptors (Method A)
(§1) Human-S1P1-Aequorin cells express mitochondrial targeted apo-Aequorin. Cells have to be loaded with coelanterazine, in order to reconstitute active Aequorin. After binding of agonists to the human S1P1 receptor the intracellular calcium concentration increases and binding of calcium to the apo-Aequorin/coelenterazine complex leads to an oxidation reaction of coelenterazine, which results in the production of apo-Aequorin, coelenteramide, CO2 and light ([…]max 469 nm). This luminescent response is dependent on the agonist concentration. Luminescence is measured using the MicroBeta Jet (Perkin Elmer). Agonistic effects of compounds are expressed as pEC50. Compounds were tested at a 10 points half log concentration range, and 2 independent experiments were performed in single point's measurements.

human S1P5 receptor = human S1P5 receptor (Homo sapiens (Human), UniProt Q9H228); assay: In vitro functional activity (agonism) on human S1P5 receptors, CHO-human-S1P5-Aequorin assay; conditions: aequorin luminescence, CHO cells, 3 independent experiments
Chain of human S1P5 receptor (Q9H228 whole entry): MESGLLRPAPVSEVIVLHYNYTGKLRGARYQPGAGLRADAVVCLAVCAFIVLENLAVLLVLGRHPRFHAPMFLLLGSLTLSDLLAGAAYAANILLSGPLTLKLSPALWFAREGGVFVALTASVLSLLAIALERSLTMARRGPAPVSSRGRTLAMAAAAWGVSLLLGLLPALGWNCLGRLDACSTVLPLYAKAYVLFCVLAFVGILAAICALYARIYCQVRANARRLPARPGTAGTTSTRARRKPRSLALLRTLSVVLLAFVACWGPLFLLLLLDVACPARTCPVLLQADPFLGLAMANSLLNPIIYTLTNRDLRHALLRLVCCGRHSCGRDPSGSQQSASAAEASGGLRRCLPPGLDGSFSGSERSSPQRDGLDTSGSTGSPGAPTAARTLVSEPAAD
Source text: In Vitro Functional Activity (Agonism) on Human S1P5 Receptors
as §1, with “The CHO-human-S1P5-Aeqorin assay was bought from Euroscreen, Brussels (Euroscreen, Technical dossier, Human Lysophospholid S1P5 (Edg8) receptor, DNA clone and CHO AequoScreen™ recombinant cell-line, catalog no: ES-593-A, September 2006). Human-S1P5-Aequorin cells” for “Human-S1P1-Aequorin cells”, “human S1P5” for “human S1P1”, “and 3” for “and 2”

human S1P3 receptor = human S1P3 receptor (Homo sapiens (Human), UniProt Q99500); assay: In vitro functional activity (agonism) on human S1P3 receptors, CHO-human-S1P3-Aequorin assay; conditions: aequorin luminescence, CHO K1 cells, 3 independent experiments, read-out: S1P3 pEC50 (converted)
Chain of human S1P3 receptor (Q99500 whole entry): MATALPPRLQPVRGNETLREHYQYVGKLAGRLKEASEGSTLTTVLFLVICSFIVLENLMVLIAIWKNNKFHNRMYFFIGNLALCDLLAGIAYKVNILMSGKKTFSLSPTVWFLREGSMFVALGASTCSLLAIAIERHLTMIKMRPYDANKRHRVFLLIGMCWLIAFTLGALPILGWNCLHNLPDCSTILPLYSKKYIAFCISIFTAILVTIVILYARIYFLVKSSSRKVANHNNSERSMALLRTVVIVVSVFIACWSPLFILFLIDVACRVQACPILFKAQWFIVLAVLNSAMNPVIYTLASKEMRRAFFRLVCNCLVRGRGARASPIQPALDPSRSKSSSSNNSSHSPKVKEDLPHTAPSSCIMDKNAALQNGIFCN
Source text: In Vitro Functional Activity (Agonism) on Human S1P3 Receptors
The CHO-human-S1P3-Aeqorin assay (CHO/Gα16/AEQ/h-S1P3) was established at Solvay Pharmaceuticals. The plasmid DNA coding for the S1P3 receptor (accession number in GenBank NM_005226 was purchased from UMR cDNA resource Centre (Rolla, Mo.). The pcDNA3.1/hS1P3 construct carrying the mitochondrially targeted apo-Aeqorin and Gal6 protein was transfected in CHO K1 cell-line.
as §1, with “Human-S1P3-Aequorin cells” for “Human-S1P1-Aequorin cells”, “human S1P3” for “human S1P1”, “and 3” for “and 2”

[1] = agonism, determined using method A (aequorin luminescence, CHO-K1 cells), 2 independent experiments, read-out: S1P1^A pEC50 (converted)

Chain of human S1P1 (P21453 whole entry): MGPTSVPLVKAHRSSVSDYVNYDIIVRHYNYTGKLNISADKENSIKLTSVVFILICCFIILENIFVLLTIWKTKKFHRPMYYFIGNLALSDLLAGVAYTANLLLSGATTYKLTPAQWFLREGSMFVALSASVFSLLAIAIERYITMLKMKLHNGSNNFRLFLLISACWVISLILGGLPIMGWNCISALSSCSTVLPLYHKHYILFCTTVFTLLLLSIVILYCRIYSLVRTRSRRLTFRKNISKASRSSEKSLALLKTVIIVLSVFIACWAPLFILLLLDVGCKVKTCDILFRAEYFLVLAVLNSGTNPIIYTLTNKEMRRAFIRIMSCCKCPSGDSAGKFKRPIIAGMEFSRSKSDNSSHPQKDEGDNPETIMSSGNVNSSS

SMILES	EC50 (human S1P1; [1])	S1P5 pEC50 (human S1P5 receptor)	EC50 (human S1P3 receptor)	EC50 (human S1P1)
CCc1cccc(Cl)c1COc1ccc2c(c1)OCC21CCN(CC(=O)O)CC1 [Compound 111, 2-{6-[(2-Chloro-6-ethylphenyl)methoxy]-2H-spiro[1-benzofuran-3,4′-piperidine]-1′-yl}acetic acid hydrochloride]	> 10 µM	7.6	2 µM	
O=C(O)CCN1CCC2(CC1)COc1cc(OCc3c(Cl)cccc3C3CC3)ccc12 [Compound 75, 3-{6-[(2-Chloro-6-cyclopropyl)phenyl)methoxy]-2H-spiro[1-benzofuran-3,4′-piperidine]-1′-yl}propanoic acid hydrochloride]	2.51 µM	7.7	> 10 µM	
CCCCCCCCOc1ccc2c(c1F)OCC21CCN(CCC(=O)O)CC1 [Compound 277, 3-[7-fluoro-6-(octyloxy)-2H-spiro[1-benzofuran-3,4′-piperidine]-1′-yl]propanoic acid]	0.0794 µM	7.8	> 10 µM	
O=C(O)CCN1CCCC2(COc3cc(OCc4c(Cl)cccc4C4CC4)ccc32)C1 (centres unmarked) [Compound 317, 3-{6-[(2-Chloro-6-cyclopropylphenyl)methoxy]-2H-spiro[1-benzofuran-3,3′-piperidine]-1′-yl}propanoic acid hydrochloride]	> 31.6 µM	7	> 10 µM	
O=C(O)CCN1CCC2(CC1)COc1cc(OCc3c(Cl)cccc3Cl)c(F)cc12 [Compound 289, 3-{6-[(2,6-Dichlorophenyl)methoxy]-5-fluoro-2H-spiro[1-benzofuran-3,4′-piperidine]-1′-yl}propanoic acid]	> 31.6 µM	7.5	> 10 µM	
CCc1cccc(Cl)c1COc1ccc2c(c1F)OCC21CCN(CCC(=O)O)CC1 [Compound 136, 3-{6-[(2-Chloro-6-ethylphenyl)methoxy]-7-fluoro-2H-spiro[1-benzofuran-3,4′-piperidine]-1′-yl}propanoic acid hydrochloride]	1.26 µM	8	> 10 µM	
CCc1cccc(Cl)c1CSc1ccc2c(c1F)OCC21CCN(CCC(=O)O)CC1 [Compound 296, hydrochloride]		8.7	> 10 µM	
O=C(O)CCCN1CCC2(CC1)COc1cc(OCc3c(Cl)cccc3C3CC3)ccc12 [Compound 121, 4-{6-[(2-Chloro-6-cyclopropylphenyl)methoxy]-2H-spiro[1-benzofuran-3,4′-piperidine]-1′-yl}butanoic acid hydrochloride]	5.01 µM	7.1	> 10 µM	
CC(CN1CCC2(CC1)COc1cc(OCc3c(Cl)cc(Cl)cc3Cl)ccc12)C(=O)O (centres unmarked) [Compound 102, 2-Methyl-3-{6-[(2,4,6-trichlorophenyl)methoxy]-2H-spiro[1-benzofuran-3,4′-piperidine]-1′-yl}propanoic acid hydrochloride]	0.631 µM	7.8		
CC(CN1CCC2(CC1)COc1cc(SCc3c(Cl)cccc3Cl)ccc12)C(=O)O (centres unmarked) [Compound 153, 3-(6-{[(2,6-Dichlorophenyl)methyl]sulfanyl}-2H-spiro[1-benzofuran-3,4′-piperidine]-1′-yl}-2-methylpropanoic acid hydrochloride]	1 µM	7.9		
O=C(O)CN1CCC2(CC1)COc1cc(C3CC3c3c(Cl)cccc3Cl)ccc12 (centres unmarked) [Compound 176, 2-{6-[2-(2,6-Dichlorophenyl)cyclopropyl]-2H-spiro[1-benzo-furan-3,4′-piperidine]-1′-yl}acetic acid hydrochloride]	> 31.6 µM	7.6	> 10 µM	
O=C(O)CCN1CCC2(CC1)COc1cc(C#Cc3ccccc3)ccc12 [Compound 303, 3-[6-(2-Phenylethynyl)-2H-spiro[1-benzofuran-3,4′-piperidine]-1′-yl]propanoic acid hydrochloride]	> 31.6 µM	7.6	> 10 µM	
CC(C)c1cccc(F)c1COc1ccc2c(c1)OCC21CCN(CCC(=O)O)CC1 [Compound 252, 3-(6-{[2-fluoro-6-(propan-2-yl)phenyl]methoxy}-2H-spiro[1-benzofuran-3,4′-piperidine]-1′-yl)propanoic acid]			5.01 µM	
O=C(O)CCN1CCC2(CC1)COc1cc(OCc3c(F)cccc3C3CC3)ccc12 [Compound 253, 3-{6-[(2-cyclopropyl-6-fluorophenyl)methoxy]-2H-spiro[1-benzofuran-3,4′-piperidine]-1′-yl}propanoic acid]	2.51 µM	7.7	> 10 µM	
O=C(O)CCN1CCC2(CC1)COc1cc(SCc3c(Cl)cc(Cl)cc3Cl)ccc12 [Compound 143, 3-(6-{[(2,4,6-Trichlorophenyl)methyl]sulfanyl}-2H-spiro[1-benzofuran-3,4′-piperidine]-1′-yl}propanoic acid hydrochloride]	> 10 µM	7.5		
O=C(O)CN1CCC2(CC1)COc1cc(OCc3c(Cl)cc(Cl)cc3Cl)ccc12 [Compound 110, 2-{6-[(2,4,6-Trichlorophenyl)methoxy]-2H-spiro[1-benzofuran-3,4′-piperidine]-1′-yl}acetic acid hydrochloride]	> 10 µM	7.8	2 µM	
O=C(O)CCN1CCC2(CC1)COc1cc(OCc3c(Cl)cccc3Cl)ccc12 [Compound 29, 3-{6-[(2,6-Dichlorophenyl)methoxy]-2H-spiro[1-benzofuran-3,4′-piperidine]-1′-yl}propanoic acid hydrochloride]		7	> 31.6 µM	> 10 µM
O=C(O)CCN1CCC2(CC1)COc1c2ccc(OCc2c(Cl)cc(Cl)cc2Cl)c1F [Compound 132, 3-{7-Fluoro-6-[(2,4,6-trichlorophenyl)methoxy]-2H-spiro[1-benzofuran-3,4′-piperidine]-1′-yl}propanoic acid hydrochloride]	> 31.6 µM	8.3	2 µM	
O=C(O)CCN1CCCC2(COc3cc(OCc4c(Cl)cccc4Cl)ccc32)C1 (centres unmarked) [Compound 321, 3-{6-[(2,6-Dichlorophenyl)methoxy]-2H-spiro[1-benzofuran-3,3′-piperidine]-1′-yl}propanoic acid hydrochloride]	> 31.6 µM	7.1	> 10 µM	
CCc1cccc(CC)c1COc1ccc2c(c1)OCC21CCN(CCC(=O)O)CC1 [Compound 258, 3-{6-[(2,6-diethylphenyl)methoxy]-2H-spiro[1-benzo-furan-3,4′-piperidine]-1′-yl}propanoic acid]		7.8	> 10 µM	2.51 µM
O=C(O)CCN1CCCC2(COc3cc(OCc4c(Cl)cccc4C(F)(F)F)ccc32)C1 (centres unmarked) [Compound 326, 3-(6-{[2-Chloro-6-(trifluoromethyl)phenyl]methoxy}-2H-spiro[1-benzofuran-3,3′-piperidine]-1′-yl)propanoic acid]	> 31.6 µM		> 10 µM	
CCCCCCCOc1ccc2c(c1F)OCC21CCN(CCC(=O)O)CC1 [Compound 276, 3-[7-fluoro-6-(heptyloxy)-2H-spiro[1-benzofuran-3,4′-piperidine]-1′-yl]propanoic acid]	> 31.6 µM	7.1	> 10 µM	
